The supplement of paper PMC10307832

How the values were obtained:
Assay in all cases: relative viability (nuclei count vs DMSO), 5 days (fraction); higher = more cells survive
[1] = compound: CCOC1=CC=CC=C1N=NC2=C(NN(C2=O)C3=NC(=CS3)C4=CC=CC=C4)C [BAM7] + C[C@]1(O)C[C@@H](c2nc(-c3ccc4ccc(-c5ccccc5)nc4c3)c3c(N)nccn32)C1 [Linsitinib] (partner 1 µM)
Outline: (§1)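 Dosing by pin tool came one day after lung cancer cell lines were seeded in 1536-well plates, using either one drug or a fixed anchor-drug dose plus five library-drug doses (not always all listed) in √10 steps. After 5 days, nuclei were counted on 4× images. Relative viability is treated-well nuclei count divided by vehicle-well nuclei count, and values are medians of duplicate plates.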

[2] = compound: CCOC1=CC=CC=C1N=NC2=C(NN(C2=O)C3=NC(=CS3)C4=CC=CC=C4)C [BAM7] + Cc1nc(Nc2ncc(C(=O)Nc3c(C)cccc3Cl)s2)cc(N2CCN(CCO)CC2)n1 [Dasatinib] (partner 0.075 µM)
Outline: as §1

[3] = compound: CCOC1=CC=CC=C1N=NC2=C(NN(C2=O)C3=NC(=CS3)C4=CC=CC=C4)C [BAM7] + Nc1nc2[nH]cc(CCc3ccc(C(=O)N[C@@H](CCC(=O)O)C(=O)O)cc3)c2c(=O)[nH]1 [Pemetrexed] (partner 0.2 µM)
Outline: as §1

[4] = compound: CCn1c(-c2nonc2N)nc2c(C#CC(C)(C)O)ncc(OC[C@H]3CCCNC3)c21 + CS(=O)(=O)CCNCc1ccc(-c2ccc3ncnc(Nc4ccc(OCc5cccc(F)c5)c(Cl)c4)c3c2)o1 [Lapatinib] (partner 2 µM)
Outline: as §1

| Cell Line | relative viability ([1]; first compound 0.5 µM) | relative viability ([1]; first compound 5 µM) | relative viability ([1]; first compound 15.81 µM) | relative viability ([1]; first compound 50 µM) | relative viability ([2]; first compound 0.5 µM) | relative viability ([2]; first compound 5 µM) | relative viability ([2]; first compound 15.81 µM) | relative viability ([2]; first compound 50 µM) | relative viability ([3]; first compound 0.5 µM) | relative viability ([3]; first compound 5 µM) | relative viability ([3]; first compound 15.81 µM) | relative viability ([3]; first compound 50 µM) | relative viability ([4]; first compound 0.01 µM) | relative viability ([4]; first compound 0.03162 µM) | relative viability ([4]; first compound 0.1 µM) | relative viability ([4]; first compound 0.3162 µM) | relative viability ([4]; first compound 1 µM) |
| --- | --- | --- | --- | --- | --- | --- | --- | --- | --- | --- | --- | --- | --- | --- | --- | --- | --- |
| NCI-H2087 | 0.974 | 1.27 | 0.893 | 0.903 | 0.939 | 0.991 | 0.765 | 0.844 | 0.671 | 0.627 | 0.653 | 0.646 | 0.965 | 0.999 | 0.899 | 1.07 | 1.03 |
| BEN | 0.914 | 0.97 | 0.876 | 0.898 | 0.351 | 0.351 | 0.323 | 0.42 | 0.74 | 0.88 | 0.98 | 1 | 0.608 | 0.717 | 0.444 | 0.637 | 0.626 |
| EKVX | 1.05 | 1.04 | 0.729 | 0.831 | 0.604 | 0.586 | 0.31 | 0.41 | 0.425 | 0.409 | 0.349 | 0.377 | 0.235 | 0.203 | 0.223 | 0.206 | 0.223 |
| LXF-289 | 1.02 | 1.04 | 0.955 | 0.962 | 0.276 | 0.235 | 0.256 | 0.253 | 1.01 | 0.994 | 0.918 | 0.865 | 0.921 | 0.891 | 0.934 | 0.871 | 0.88 |
| NCI-H650 | 0.867 | 0.95 | 0.825 | 1.19 | 0.422 | 0.49 | 0.477 | 0.517 | 1.03 | 0.979 | 0.987 | 1 | 0.733 | 0.838 | 0.783 | 0.753 | 0.741 |
| NCI-H2085 | 0.968 | 1.03 | 0.821 | 0.911 | 0.237 | 0.211 | 0.229 | 0.217 | 1.02 | 0.675 | 0.844 | 0.992 | 0.8 | 0.7 | 0.601 | 0.574 | 0.573 |
| NCI-H1793 | 0.971 | 1.15 | 0.653 | 0.789 | 0.375 | 0.424 | 0.431 | 0.388 | 0.931 | 0.728 | 0.809 | 1.13 | 0.75 | 0.699 | 0.577 | 0.548 | 0.939 |
| LC-2-ad | 0.856 | 0.898 | 0.812 | 0.783 | 0.8 | 0.555 | 0.546 | 0.639 | 0.297 | 0.277 | 0.293 | 0.29 | 0.993 | 1.01 | 0.906 | 0.975 | 0.977 |
| COR-L 105 | 1.14 | 0.801 | 1 | 0.97 | 0.308 | 0.407 | 0.455 | 0.501 | 1.02 | 1.31 | 1.01 | 1.15 | 0.33 | 0.366 | 0.313 | 0.393 | 0.321 |
| NCI-H1355 | 0.89 | 0.823 | 0.729 | 0.792 | 0.572 | 0.61 | 0.46 | 0.549 | 1.08 | 0.978 | 1 | 1.01 | 1.03 | 0.944 | 0.998 | 0.926 | 1.02 |
| H3255 | 0.901 | 1.02 | 0.606 | 0.848 | 0.397 | 0.34 | 0.483 | 0.788 | 0.578 | 0.543 | 0.548 | 0.545 | 0.259 | 0.202 | 0.217 | 0.276 | 0.228 |
| NCI-H1993 | 0.688 | 0.724 | 0.701 | 0.742 | 0.492 | 0.541 | 0.502 | 0.575 | 0.62 | 0.529 | 0.5 | 0.581 | 0.957 | 0.781 | 0.947 | 0.704 | 0.872 |
| NCI-H1734 | 0.946 | 1.07 | 0.821 | 0.937 | 0.503 | 0.59 | 0.491 | 0.53 | 0.437 | 0.415 | 0.382 | 0.411 | 1.01 | 1.02 | 0.896 | 0.885 | 0.825 |
| HOP-62 | 1.09 | 1.23 | 0.904 | 0.756 | 0.636 | 0.727 | 0.601 | 0.649 | 0.269 | 0.356 | 0.328 | 0.371 | 1.11 | 1.05 | 1 | 0.993 | 0.87 |
| LOU-NH91 | 0.912 | 0.936 | 0.893 | 0.996 | 0.495 | 0.658 | 0.535 | 0.552 | 0.347 | 0.436 | 0.392 | 0.346 | 0.802 | 0.681 | 0.717 | 0.652 | 0.618 |
| NCI-H2228 | 0.674 | 0.789 | 0.554 | 0.842 | 0.598 | 0.639 | 0.509 | 0.521 | 0.355 | 0.341 | 0.316 | 0.351 | 1.27 | 1.09 | 1.02 | 0.755 | 0.729 |
| PC-14 | 0.984 | 1.04 | 0.953 | 0.975 | 0.229 | 0.211 | 0.228 | 0.295 | 0.128 | 0.129 | 0.142 | 0.165 | 0.314 | 0.406 | 0.319 | 0.246 | 0.291 |
| NCI-H1437 | 1.03 | 0.959 | 0.922 | 0.993 | 0.561 | 0.574 | 0.445 | 0.833 | 0.308 | 0.304 | 0.33 | 0.372 | 0.841 | 0.821 | 0.877 | 0.719 | 0.795 |
